Measured values taken from ChEMBL document CHEMBL1201862, “PubChem BioAssay data set” (2004).
Active and inactive are the calls of the source. Cut-off read from the data, not from the text of the source, for most assays here: actives have a measured EC50 and inactives only a lower limit.

What was measured:
[1] = Luminescence Cell-Based Dose Response HTS to Identify Activators of Luciferase Translation or Activity in H4 […] Cells. [Related pubchem assays: 1829 (Project Summary), 1814 (Primary HTS)]; format: functional
[2] = test system: H4; experiment: Luminescence Cell-Based Dose Response HTS to Identify Activators of 5'UTR Stem-Loop Driven Prion Protein mRNA Translation in H4 Neuroglioblastoma Cells. [Related pubchem assays: 1829 (Project Summary), 1814 (Primary HTS)]; format: functional; conditions: Homo sapiens
[3] = Luminescence Cell-Based Dose Confirmation HTS to Identify Activators of 5'UTR Stem-Loop Driven Alpha-Synuclein mRNA Translation in H4 Neuroglioblastoma Cells. [Related pubchem assays: 1829 (Project Summary), 1814 (Primary HTS)]; format: functional
[4] = molecular target: Luciferin 4-monooxygenase (Photinus pyralis, UniProt P08659); experiment: firefly luciferase enzyme inhibitors, dose response, biochemical, luminescence (AID 1891)
[5] = Luminescence Cell-Based Dose Confirmation HTS to Identify Inhibitors of Platelet Dense Granule Release. [Related pubchem assays: 1663 (Primary HTS), 1678 (Summary of Project)]; format: functional
[6] = molecular target: T1, Protein skinhead-1 (Caenorhabditis elegans, UniProt P34707); format: functional
T1 sequence (P34707 whole entry): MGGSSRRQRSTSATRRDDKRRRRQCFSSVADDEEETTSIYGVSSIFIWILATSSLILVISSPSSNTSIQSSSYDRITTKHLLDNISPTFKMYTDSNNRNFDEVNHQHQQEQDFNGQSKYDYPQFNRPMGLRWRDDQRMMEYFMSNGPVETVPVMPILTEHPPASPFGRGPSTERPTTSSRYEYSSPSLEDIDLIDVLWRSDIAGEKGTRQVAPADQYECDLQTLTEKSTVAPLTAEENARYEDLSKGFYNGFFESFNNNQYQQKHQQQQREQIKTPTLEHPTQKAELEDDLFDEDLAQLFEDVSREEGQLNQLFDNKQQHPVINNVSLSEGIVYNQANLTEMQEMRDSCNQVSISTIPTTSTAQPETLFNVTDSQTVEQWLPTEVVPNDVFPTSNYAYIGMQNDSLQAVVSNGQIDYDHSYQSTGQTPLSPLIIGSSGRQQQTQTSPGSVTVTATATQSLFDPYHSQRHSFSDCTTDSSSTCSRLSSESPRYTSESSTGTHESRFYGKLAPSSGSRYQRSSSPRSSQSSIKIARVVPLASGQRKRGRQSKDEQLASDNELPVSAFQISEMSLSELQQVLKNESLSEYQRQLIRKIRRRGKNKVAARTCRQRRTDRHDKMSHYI

[7] = molecular target: T2, Rac GTPase-activating protein 1 (Homo sapiens, UniProt Q9H0H5); experiment: MgcRacGAP GTPase-activating activity inhibitors, confirmation, biochemical, ADP Hunter fluorescence, primary and confirmatory (AID 624330); format: functional
T2 sequence (Q9H0H5 whole entry): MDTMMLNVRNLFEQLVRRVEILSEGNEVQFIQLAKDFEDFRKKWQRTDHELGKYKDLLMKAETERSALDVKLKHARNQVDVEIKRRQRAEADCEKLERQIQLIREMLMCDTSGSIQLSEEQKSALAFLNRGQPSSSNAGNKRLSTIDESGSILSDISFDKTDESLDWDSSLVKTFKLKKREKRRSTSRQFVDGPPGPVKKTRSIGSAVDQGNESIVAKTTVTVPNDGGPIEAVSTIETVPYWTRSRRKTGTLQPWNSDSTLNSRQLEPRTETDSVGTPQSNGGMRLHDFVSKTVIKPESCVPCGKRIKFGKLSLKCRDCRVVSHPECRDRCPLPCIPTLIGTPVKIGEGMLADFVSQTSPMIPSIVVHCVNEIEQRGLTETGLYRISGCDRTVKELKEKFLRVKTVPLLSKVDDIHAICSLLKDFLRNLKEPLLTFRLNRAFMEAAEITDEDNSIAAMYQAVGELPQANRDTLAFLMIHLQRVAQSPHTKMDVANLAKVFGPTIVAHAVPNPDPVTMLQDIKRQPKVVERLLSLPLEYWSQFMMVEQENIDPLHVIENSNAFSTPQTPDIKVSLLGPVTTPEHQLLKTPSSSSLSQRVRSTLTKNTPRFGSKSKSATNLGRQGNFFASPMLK

[8] = inhibitors of firefly luciferase expression or activity, dose response, H4 neuroglioma cells, luminescence (AID 1990); format: functional, cell-based
[9] = Luminescence Cell-Based Dose Response HTS to Identify Inhibitors of 5'UTR Stem-Loop Driven Prion Protein mRNA Translation in H4 Neuroglioblastoma Cells. [Related pubchem assays: 1827 (Project Summary), 1813 (Primary HTS)]; format: functional
[10] = inhibitors of SNCA 5'UTR-driven reporter translation, confirmation, H4 neuroglioma cells, luminescence (AID 1988); format: functional, cell-based
[11] = cytotoxicity toward NIH3T3 fibroblasts, dose response, counter-screen, cell-based, ATP luminescence, mouse fibroblasts (AID 2010); format: functional;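 note: cells exposed to compound for about 90 hours before reading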
[12] = inhibitors of intracellular T. cruzi replication, confirmation, NIH3T3 host cells, beta-gal luminescence (AID 2044); format: functional, cell-based;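 note: intracellular parasites grown in NIH/3T3 mouse fibroblasts as host cells; luminescent beta-galactosidase reporter signal from transgenic T. cruzi replicating inside host cells; inhibitors lower the luminescence signal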

Chain of Luciferin 4-monooxygenase (P08659 whole entry): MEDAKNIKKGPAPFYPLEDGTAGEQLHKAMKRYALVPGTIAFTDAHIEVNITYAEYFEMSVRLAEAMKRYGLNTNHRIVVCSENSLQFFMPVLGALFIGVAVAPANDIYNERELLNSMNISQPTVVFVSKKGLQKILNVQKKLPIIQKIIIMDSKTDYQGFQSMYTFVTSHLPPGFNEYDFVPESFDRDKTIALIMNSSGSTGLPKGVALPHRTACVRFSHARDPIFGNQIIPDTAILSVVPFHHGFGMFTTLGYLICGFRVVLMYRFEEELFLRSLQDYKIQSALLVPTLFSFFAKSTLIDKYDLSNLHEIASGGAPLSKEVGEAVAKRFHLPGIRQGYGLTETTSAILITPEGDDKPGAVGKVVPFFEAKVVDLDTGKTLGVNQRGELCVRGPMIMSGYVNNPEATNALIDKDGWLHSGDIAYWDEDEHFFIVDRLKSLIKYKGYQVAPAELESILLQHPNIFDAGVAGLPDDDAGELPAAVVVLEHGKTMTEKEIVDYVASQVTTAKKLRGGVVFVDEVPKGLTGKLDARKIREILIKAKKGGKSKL

## CC(C)c1nnc(NC(=O)COc2ccccc2[N+](=O)[O-])s1
[1]
  EC50: 67 µM (active)
[2]
  EC50: 13.6 µM (active)
[3]
  EC50: 0.112 µM (active)

## OC1CN=C2C=CC=CN2C1 (stereo not given)
[4]
  EC50: > 112 µM (not active)
[5]
  EC50: > 112 µM (not active)

## O=C(Sc1ccc(Cl)cc1)c1ccccn1
[6]
  IC50: 44.5 µM (active)

## NC(=O)C1CC(=O)N(c2ccc(OCc3ccc(Cl)cc3)cc2)C1 (stereo not given)
[1]
  EC50: 42.6 µM (active)
[3]
  EC50: 19.2 µM (active)

## COc1cc(NC(=O)CN2C(=O)C(c3ccccc3)=NC23CCCCCC3)cc(OC)c1
[4]
  EC50: > 112 µM (not active)
[5]
  EC50: > 112 µM (not active)

## CONC=NC(=O)NOCc1ccc(Cl)cc1Cl
[4]
  EC50: > 112 µM (not active)
[5]
  EC50: > 112 µM (not active)

## N#Cc1c(O)nsc1Nc1ccc(Cl)cc1
[7]
  IC50: 79.9 µM (active)

## Cn1ncc2cc(NC(=S)NC(=O)c3ccccc3)ccc21
[1]
  EC50: 21 µM (active)
[2]
  EC50: 83 µM (active)
[3]
  EC50: 13.8 µM (active)

## CN1CCc2c(sc3c2C(=O)NC(c2ccccc2)N3)C1 (stereo not given)
[6]
  IC50: > 100 µM (inactive)

## CC(C)CNc1nc(N)c([N+](=O)[O-])c(NCc2ccccc2)n1
[8]
  EC50: 16.3 µM (active)
[9]
  EC50: > 120 µM (not active)
[10]
  EC50: 22.7 µM (active)

## CC(C(=O)N(C)Cc1ccccc1)N1CCN(C/C=C/c2ccccc2)CC1 (stereo not given)
[7]
  IC50: 80.2 µM (active)
[11]
  EC50: > 30 µM (not active)
[12]
  EC50: 0.164 µM (active)

## CCN(CC(=O)Nc1cc(Cl)ccc1OC)CC(=O)NC1CCS(=O)(=O)C1 (stereo not given)
[7]
  IC50: 95.7 µM (active)

## Cc1nn(-c2ccccc2)c(O)c1/C=N/N(C)c1ccccc1
[7]
  IC50: 19.3 µM (active)

## O=C(CSc1nnc2ccccn12)N1CCc2ccccc2C1
[1]
  EC50: 38.9 µM (active)
[2]
  EC50: 78 µM (active)
[3]
  EC50: 13.1 µM (active)

## COc1ccc(-c2n[nH]c(S)n2)cc1
[5]
  EC50: > 112 µM (not active)

## COc1ccc(C(c2sc3nc(C)nn3c2O)N2CCCCC2)cc1 (stereo not given)
[4]
  EC50: > 112 µM (not active)
[5]
  EC50: > 112 µM (not active)

## Fc1ccc(Nc2cccc3nccnc23)cc1
[6]
  IC50: 34.1 µM (active)

## Cc1ccc(S(=O)(=O)NCC2CCC(C(=O)NCc3ccc4c(c3)OCO4)CC2)cc1 (stereo not given)
[4]
  EC50: > 112 µM (not active)
[5]
  EC50: > 112 µM (not active)

## Nc1ccc2c(c1)[nH]c(=O)c1cc(N)ccc12
[7]
  IC50: 10.9 µM (active)

## Cc1nonc1C(=O)N/N=C/c1ccc(O)cc1
[7]
  IC50: 95.6 µM (active)
[4]
  EC50: 0.916 µM (active)
[5]
  EC50: 0.172 µM (active)

## Cc1cc(S(=O)(=O)N2CCCC2)ccc1OCC(=O)N1CCOCC1
[8]
  EC50: > 120 µM (not active)
[9]
  EC50: > 120 µM (not active)
[10]
  EC50: > 120 µM (not active)

## COc1ccc(/C=N/NC(=O)CN2CCCCCCC2)c(C)c1C
[7]
  IC50: 139 µM (active)

## CCOc1ccc2nc(NC(=O)CSc3nnc(-c4ccncc4)n3CC3CCCO3)sc2c1 (stereo not given)
[1]
  EC50: 8.04 µM (active)
[2]
  EC50: 11.8 µM (active)
[3]
  EC50: 7.45 µM (active)

## O=C1C[C@H]2[C@H](CO)[C@@H](OC(=O)c3ccc(-c4ccccc4)cc3)C[C@H]2O1
[1]
  EC50: 16.9 µM (active)
[2]
  EC50: 69.8 µM (active)
[3]
  EC50: 12.8 µM (active)

## Cc1cccc(N2CCN(S(=O)(=O)c3ccc4c(c3)C(C)(C)C(=O)N4C)CC2C)c1 (stereo not given)
[4]
  EC50: > 112 µM (not active)
[5]
  EC50: > 112 µM (not active)
